# Experimental data taken from US20170313669A1, “LACTONE COMPOUNDS AND METHODS OF MAKING AND USING SAME” (THE SCRIPPS RESEARCH INSTITUTE, priority 2015, published 2017).
# Legend:
# ABHD16A [1] = target: T1, ABHD16A (Homo sapiens, UniProt O95870); test: PS substrate assay, human ABHD16A-transfected HEK293T membrane proteome; assay type: biochemical; parameters: transiently transfected with 12 μg of the full-length cDNA of human ABHD16A (Open Biosystems Catalog # MHS6278-202758315); host or cells: HEK293T, transient, pCMV-SPORT6; settings: 20 μM, 30 min
# T1 sequence (O95870 1-558): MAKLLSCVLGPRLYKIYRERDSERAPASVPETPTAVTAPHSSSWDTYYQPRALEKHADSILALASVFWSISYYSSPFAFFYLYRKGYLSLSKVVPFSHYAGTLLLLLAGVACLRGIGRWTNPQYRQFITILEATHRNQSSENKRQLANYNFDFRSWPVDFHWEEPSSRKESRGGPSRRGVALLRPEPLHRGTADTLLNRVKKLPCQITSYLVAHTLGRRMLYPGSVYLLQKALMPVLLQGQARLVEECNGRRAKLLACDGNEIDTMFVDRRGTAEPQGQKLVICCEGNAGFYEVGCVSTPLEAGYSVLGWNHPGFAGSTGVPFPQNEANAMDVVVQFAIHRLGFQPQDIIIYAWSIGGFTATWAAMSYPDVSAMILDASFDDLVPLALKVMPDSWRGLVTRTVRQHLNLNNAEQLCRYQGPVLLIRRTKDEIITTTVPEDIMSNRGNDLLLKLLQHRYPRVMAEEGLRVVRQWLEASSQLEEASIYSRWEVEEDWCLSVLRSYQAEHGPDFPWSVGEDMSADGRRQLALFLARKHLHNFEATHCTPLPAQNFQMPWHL
# Experimental: HEK293T cells were grown to 40% confluence in a 15 cm dish in 25 mL of Dulbecco's modified Eagle medium (DMEM) supplemented with L-glutamine and 10% (vol/vol) FCS at 37° C. and 5% CO2 (vol/vol). The cells were transiently transfected with 12 μg of the full-length cDNA of human ABHD16A (Open Biosystems Catalog # MHS6278-202758315) or murine ABHD16A (Open Biosystems Catalog # MMM1013-202760516) in pCMV-SPORT6 vector using 40 μg polyethyleneimine “MAX” (MW 40,000) (PEI) (Polysciences Inc. Catalog #24765) as the transfection reagent as per manufacturer's instructions. As a “mock” control, an empty vector was transiently transfected. […] Protein concentration was measured using the Bio-Rad DC Protein Assay Kit as per manufacturer's protocol, and ABHD16A expression was confirmed using gel-based ABPP.
# All the lipid species used in the lipid substrate hydrolysis assays were purchased from Avanti Polar Lipids Inc unless mentioned otherwise. […] All the data was collected and analyzed using the Agilent MassHunter Workstation software version B.04 using the Data Acquisition and Quantitative Analysis programs respectively. Measuring the area under the peak, and normalizing it to the internal standard quantified the product release for the lipid substrate hydrolysis assays. […] Some products from the substrate hydrolysis assays were detected in positive ion mode for qualitative identification. […]
# mouse ABHD16A = target: T2, mouse ABHD16A (Mus musculus, UniProt Q9Z1Q2); test: PS substrate assay, mouse ABHD16A-transfected HEK293T proteome; assay type: biochemical; settings: 20 μM, 30 min, 37° C.
# T2 construct: full-length cDNA of human ABHD16A (Open Biosystems Catalog # MHS6278-202758315) or murine ABHD16A (Open Biosystems Catalog # MMM1013-202760516); host or cells: HEK293T, transient, pCMV-SPORT6
# T2 sequence (Q9Z1Q2 1-558): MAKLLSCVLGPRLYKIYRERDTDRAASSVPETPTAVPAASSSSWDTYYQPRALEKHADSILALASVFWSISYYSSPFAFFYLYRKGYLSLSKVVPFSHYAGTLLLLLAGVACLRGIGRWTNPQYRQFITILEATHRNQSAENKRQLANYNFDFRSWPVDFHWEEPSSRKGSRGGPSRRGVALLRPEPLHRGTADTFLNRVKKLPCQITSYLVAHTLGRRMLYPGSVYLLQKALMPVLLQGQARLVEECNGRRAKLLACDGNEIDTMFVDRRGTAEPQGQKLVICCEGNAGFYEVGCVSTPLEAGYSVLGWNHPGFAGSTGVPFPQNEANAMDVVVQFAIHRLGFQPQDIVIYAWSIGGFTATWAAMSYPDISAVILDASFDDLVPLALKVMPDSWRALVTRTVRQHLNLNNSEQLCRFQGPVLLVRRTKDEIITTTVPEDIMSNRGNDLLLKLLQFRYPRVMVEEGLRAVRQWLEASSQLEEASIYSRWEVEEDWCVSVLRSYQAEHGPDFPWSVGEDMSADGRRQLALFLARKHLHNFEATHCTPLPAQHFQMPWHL
# ABHD16A [2] = target: T1, ABHD16A; test: ABPP-SILAC, COLO205 cells treated in situ; assay type: cell-based; parameters: All ABPP-SILAC experiments were performed using the human COLO205 colon cancer cell line; endogenous in cells; host or cells: COLO205; settings: COLO 205, 4 h
# ABHD16A−/− macrophages = test: Lyso-PS and cytokines of ABHD16A−/− macrophages; assay type: cell-based, mouse; settings: basal or LPS stimulation; 1 μM, 4 h
# Experimental: Concentration of secreted lyso-PS (a) and cytokines IL-6 (b) and TNF-α (c) from thioglycollate-elicited peritoneal mouse macrophages from ABHD16A^−/− mice treated with inhibitor (KC01 or KC02, 1 μM, 4 h) followed by vehicle (PBS) or LPS (5 μg/mL) for 7 h is shown. Data represent mean±s.e.m. for four biological replicates. KC01 and KC02 have no effect on lyso-PS or cytokine secretion. Other secreted and cellular lipids in ABHD16A^−/− macrophages were also unchanged by KC01 or KC02 treatment (data not shown).
# Peritoneal macrophages were elicited and harvested from mice according to the standard protocols available from LIPID MAPS (See http://www.lipidmaps.org/protocols/PP0000001400.pdf and http://www.lipidmaps.org/protocols/PP0000001500.pdf). After removal of the RBC lysis buffer, the macrophages were re-suspended in RPMI 1640 with 10% FCS and IX penicillin-streptomycin. Cell counts measured using a Bio-Rad TC10 automated cell counter, and equal numbers of cells (2×10^6) were plated in 10 cm tissue culture dishes. Macrophages were allowed to adhere to the plates for 2 h at 37° C. and 5% CO2. […] Macrophages were then stimulated with lipopolysaccharide (5 μg/mL) for 7 hours. Sterile PBS was the vehicle in these studies. Four milliliters of the media was used for measuring secreted metabolites, and 0.5 mL was used for cytokine measurements.
# FASN = target: T3, FASN (Homo sapiens, UniProt P49327); test: ABPP-SILAC of COLO205 membrane proteome treated with compound 8b; assay type: biochemical; settings: 30 min
# T3 construct: All ABPP-SILAC experiments were performed using the human COLO205 colon cancer cell line; endogenous in cells; host or cells: COLO205
# ABHD16A [3] = target: T1, ABHD16A; test: as above; assay type: biochemical; parameters: All ABPP-SILAC experiments were performed using the human COLO205 colon cancer cell line; endogenous in cells; host or cells: COLO205; settings: 30 min
# PNPLA4 = target: T4, PNPLA4 (Homo sapiens, UniProt P41247); test: as above; assay type: biochemical; settings: 30 min
# T4 construct: All ABPP-SILAC experiments were performed using the human COLO205 colon cancer cell line; endogenous in cells; host or cells: COLO205
# ABHD12 = target: T5, ABHD12 (Homo sapiens, UniProt Q8N2K0); test: as above; assay type: biochemical; settings: 30 min
# T5 construct: All ABPP-SILAC experiments were performed using the human COLO205 colon cancer cell line; endogenous in cells; host or cells: COLO205
# FAAH = target: T6, FAAH (Homo sapiens, UniProt O00519); test: as above; assay type: biochemical; settings: 30 min
# T6 construct: All ABPP-SILAC experiments were performed using the human COLO205 colon cancer cell line; endogenous in cells; host or cells: COLO205
# CES2 = target: T7, CES2 (Homo sapiens, UniProt O00748); test: as above; assay type: biochemical; settings: 30 min
# T7 construct: All ABPP-SILAC experiments were performed using the human COLO205 colon cancer cell line; endogenous in cells; host or cells: COLO205
# ABHD2 = target: T8, ABHD2 (Homo sapiens, UniProt P08910); test: as above; assay type: biochemical; settings: 30 min
# T8 construct: All ABPP-SILAC experiments were performed using the human COLO205 colon cancer cell line; endogenous in cells; host or cells: COLO205
# ABHD3 = target: T9, ABHD3 (Homo sapiens, UniProt Q8WU67); test: as above; assay type: biochemical; settings: 30 min
# T9 construct: All ABPP-SILAC experiments were performed using the human COLO205 colon cancer cell line; endogenous in cells; host or cells: COLO205
# [4] = test system: serine hydrolase targets from mouse brain and COLO205 membrane proteomes; test: Competitive gel-based ABPP of β-lactone probe set; assay type: biochemical; settings: 25 μM, 30 min, 37° C., then FP-rhodamine
# Experimental: Competitive gel-based ABPP were performed as described previously with slight modifications. See Adibekian et al. Nat. Chem. Biol. (2011) 7, 469. […] The reactions were quenched by adding 40 μL of 4×SDS-PAGE loading buffer for reducing gels, followed by boiling for 2 minutes. All samples were visualized in-gel using an FMBio II Multiview flatbed fluorescence scanner (Hitachi). The fluorescence from rhodamine is presented in gray scale.
# T5 sequence (Q8N2K0 whole entry): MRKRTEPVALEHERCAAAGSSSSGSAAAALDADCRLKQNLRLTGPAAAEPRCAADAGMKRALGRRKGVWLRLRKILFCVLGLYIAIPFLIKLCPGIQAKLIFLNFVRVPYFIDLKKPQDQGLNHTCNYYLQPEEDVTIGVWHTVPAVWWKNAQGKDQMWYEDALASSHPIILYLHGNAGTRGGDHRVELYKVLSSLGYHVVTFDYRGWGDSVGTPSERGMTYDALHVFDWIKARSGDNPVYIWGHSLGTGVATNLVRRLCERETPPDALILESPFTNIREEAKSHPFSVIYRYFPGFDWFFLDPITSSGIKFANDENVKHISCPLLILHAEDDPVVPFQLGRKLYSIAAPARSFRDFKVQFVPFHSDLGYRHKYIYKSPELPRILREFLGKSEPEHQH
# T8 sequence (P08910 whole entry): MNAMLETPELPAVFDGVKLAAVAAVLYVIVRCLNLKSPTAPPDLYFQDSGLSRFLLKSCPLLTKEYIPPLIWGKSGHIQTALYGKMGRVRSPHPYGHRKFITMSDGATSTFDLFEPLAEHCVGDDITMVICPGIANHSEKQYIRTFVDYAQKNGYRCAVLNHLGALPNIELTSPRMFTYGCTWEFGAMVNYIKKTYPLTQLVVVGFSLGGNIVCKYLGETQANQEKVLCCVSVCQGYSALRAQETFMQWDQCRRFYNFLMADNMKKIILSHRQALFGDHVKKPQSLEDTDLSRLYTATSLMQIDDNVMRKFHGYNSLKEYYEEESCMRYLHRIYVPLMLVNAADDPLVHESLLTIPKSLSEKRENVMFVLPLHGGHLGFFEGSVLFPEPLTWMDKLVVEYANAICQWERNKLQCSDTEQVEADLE
# T7 sequence (O00748 27-559): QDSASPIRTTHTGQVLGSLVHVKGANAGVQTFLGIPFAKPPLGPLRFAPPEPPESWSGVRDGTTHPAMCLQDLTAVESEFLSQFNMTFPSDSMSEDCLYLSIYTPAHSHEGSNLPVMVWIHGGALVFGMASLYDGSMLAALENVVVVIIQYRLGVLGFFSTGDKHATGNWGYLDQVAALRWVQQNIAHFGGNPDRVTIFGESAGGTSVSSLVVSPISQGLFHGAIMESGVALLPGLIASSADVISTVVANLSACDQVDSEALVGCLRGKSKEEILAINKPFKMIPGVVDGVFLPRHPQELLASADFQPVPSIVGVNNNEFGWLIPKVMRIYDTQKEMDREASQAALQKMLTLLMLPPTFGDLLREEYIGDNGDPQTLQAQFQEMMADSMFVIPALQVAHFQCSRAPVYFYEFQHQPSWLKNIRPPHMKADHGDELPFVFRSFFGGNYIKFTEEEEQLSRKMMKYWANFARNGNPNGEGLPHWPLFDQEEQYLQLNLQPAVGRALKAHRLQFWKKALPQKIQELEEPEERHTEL
# T9 sequence (Q8WU67 whole entry): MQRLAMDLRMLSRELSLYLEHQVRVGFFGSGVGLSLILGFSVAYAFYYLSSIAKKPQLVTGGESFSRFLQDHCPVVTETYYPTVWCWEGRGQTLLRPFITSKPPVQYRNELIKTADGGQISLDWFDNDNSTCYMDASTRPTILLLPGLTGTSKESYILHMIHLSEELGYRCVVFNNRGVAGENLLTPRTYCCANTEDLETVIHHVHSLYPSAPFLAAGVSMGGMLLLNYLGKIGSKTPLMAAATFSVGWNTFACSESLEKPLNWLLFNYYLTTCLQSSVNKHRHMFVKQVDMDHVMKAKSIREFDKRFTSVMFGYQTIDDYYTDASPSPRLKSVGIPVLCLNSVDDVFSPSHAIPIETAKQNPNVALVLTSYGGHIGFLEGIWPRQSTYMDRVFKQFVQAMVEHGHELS
# T3 sequence (P49327 whole entry): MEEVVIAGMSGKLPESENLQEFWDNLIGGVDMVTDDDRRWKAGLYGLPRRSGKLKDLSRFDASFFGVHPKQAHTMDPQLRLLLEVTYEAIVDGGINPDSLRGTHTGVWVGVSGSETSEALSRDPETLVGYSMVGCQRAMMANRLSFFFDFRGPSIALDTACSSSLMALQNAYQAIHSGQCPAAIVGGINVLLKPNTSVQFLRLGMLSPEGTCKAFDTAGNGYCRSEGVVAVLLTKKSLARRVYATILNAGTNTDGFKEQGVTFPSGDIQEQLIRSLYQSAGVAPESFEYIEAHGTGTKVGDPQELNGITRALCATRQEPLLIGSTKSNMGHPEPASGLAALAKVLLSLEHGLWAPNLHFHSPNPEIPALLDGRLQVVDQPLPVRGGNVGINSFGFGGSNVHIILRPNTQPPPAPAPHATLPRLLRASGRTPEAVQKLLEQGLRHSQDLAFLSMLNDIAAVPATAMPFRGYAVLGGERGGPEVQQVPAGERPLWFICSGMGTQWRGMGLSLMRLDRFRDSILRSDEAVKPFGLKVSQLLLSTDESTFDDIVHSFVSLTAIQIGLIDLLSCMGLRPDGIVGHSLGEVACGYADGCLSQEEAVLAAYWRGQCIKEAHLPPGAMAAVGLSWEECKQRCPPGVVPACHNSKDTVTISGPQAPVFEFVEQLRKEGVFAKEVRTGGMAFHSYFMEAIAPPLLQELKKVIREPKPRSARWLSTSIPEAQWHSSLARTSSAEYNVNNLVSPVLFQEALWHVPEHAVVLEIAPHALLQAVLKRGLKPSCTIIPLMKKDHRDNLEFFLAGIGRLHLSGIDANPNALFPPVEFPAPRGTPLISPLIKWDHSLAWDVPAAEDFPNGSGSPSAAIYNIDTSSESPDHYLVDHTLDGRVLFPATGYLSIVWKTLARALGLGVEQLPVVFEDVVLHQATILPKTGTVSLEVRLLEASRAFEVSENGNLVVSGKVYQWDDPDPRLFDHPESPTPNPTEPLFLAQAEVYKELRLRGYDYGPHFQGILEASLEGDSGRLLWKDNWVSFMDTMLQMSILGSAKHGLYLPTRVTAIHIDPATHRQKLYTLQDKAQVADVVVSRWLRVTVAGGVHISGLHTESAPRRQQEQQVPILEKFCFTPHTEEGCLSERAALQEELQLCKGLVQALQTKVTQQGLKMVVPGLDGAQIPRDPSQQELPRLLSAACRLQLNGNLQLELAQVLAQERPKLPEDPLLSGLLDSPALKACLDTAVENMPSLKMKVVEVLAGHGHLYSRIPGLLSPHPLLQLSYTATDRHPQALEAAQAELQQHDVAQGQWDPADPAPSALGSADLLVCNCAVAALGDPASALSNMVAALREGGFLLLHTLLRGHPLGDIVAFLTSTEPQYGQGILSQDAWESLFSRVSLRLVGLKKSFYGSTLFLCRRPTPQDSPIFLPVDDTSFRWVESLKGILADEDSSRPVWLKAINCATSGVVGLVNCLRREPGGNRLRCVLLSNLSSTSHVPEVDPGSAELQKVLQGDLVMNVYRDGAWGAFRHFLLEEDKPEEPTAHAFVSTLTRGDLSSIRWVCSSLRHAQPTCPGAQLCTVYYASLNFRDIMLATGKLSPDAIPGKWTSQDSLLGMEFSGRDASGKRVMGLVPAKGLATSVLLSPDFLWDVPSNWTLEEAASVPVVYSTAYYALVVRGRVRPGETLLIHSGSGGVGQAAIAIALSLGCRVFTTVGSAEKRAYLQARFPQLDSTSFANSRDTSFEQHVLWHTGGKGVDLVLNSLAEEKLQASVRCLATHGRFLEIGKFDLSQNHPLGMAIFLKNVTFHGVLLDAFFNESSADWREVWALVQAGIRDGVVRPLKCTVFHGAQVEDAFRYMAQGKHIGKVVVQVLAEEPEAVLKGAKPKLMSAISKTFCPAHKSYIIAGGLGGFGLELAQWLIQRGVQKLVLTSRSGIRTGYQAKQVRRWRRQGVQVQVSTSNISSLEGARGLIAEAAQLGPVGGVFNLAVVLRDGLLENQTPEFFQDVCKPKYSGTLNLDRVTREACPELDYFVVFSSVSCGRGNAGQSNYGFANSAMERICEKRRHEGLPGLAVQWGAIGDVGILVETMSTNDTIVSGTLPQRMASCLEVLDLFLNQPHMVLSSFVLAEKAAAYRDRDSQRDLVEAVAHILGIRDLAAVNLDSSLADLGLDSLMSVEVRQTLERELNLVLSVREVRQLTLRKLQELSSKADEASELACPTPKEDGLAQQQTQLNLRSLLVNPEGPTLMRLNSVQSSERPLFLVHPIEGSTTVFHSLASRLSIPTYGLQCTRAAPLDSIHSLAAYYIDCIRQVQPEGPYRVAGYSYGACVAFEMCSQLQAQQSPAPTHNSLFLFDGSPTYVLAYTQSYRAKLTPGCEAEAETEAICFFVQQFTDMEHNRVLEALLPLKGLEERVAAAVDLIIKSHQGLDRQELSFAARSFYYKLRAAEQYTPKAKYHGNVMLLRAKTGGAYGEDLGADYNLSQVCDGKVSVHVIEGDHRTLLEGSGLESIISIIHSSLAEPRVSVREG
# T4 sequence (P41247 whole entry): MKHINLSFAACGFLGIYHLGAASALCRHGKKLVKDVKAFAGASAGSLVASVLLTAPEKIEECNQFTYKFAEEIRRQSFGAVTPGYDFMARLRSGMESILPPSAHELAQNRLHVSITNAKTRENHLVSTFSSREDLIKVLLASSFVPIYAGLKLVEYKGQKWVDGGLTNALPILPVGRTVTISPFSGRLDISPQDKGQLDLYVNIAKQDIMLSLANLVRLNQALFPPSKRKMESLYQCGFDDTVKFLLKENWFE
smiles,measurement,setting,value
"CCCCCCCCCCCCCC1OC(=O)/C1=C\CCCCCS(N)(=O)=O (stereo not drawn) [Compound 16, (Z)-6-(2-Oxo-4-tridecyloxetan-3-ylidene)hexane-1-sulfonamide]",melting point,,79 to 80 °C
"CCCCCCCCCCCCCC1OC(=O)/C1=C\c1ccccc1 (stereo not drawn) [Compound 3, (Z)-3-benzylidene-4-tridecyloxetan-2-one]",melting point,,61 to 62 °C
"CCCCCCCCCCCCCC1OC(=O)/C1=C\CCCCc1ccccc1 (stereo not drawn) [Compound 4, (Z)-3-(5-phenylpentylidene)-4-tridecyloxetan-2-one]",melting point,,34 to 35 °C
"CCCCCCCCCCCCCC1OC(=O)C1CCCCCC(N)=O (mixture of isomers) [Compound 17, (cis/trans)-6-(2-Oxo-4-tridecyloxetan-3-yl)hexanamide]",melting point,,98 to 101 °C
"CCCCCCCCCCC[C@@H](C[C@@H]1OC(=O)[C@H]1CCCCCC)OC(=O)[C@H](CC(C)C)NC=O [THL, tetrahydrolipstatin, reference compound]",heightened PS lipase activity of ABHD16A-transfected proteome,ABHD16A [1],blocked
same,heightened PS lipase activity of ABHD16A-transfected proteome,mouse ABHD16A,blocked
"NC(=O)CCCC/C=C1\C(=O)OC1CCCCCCCCCc1ccccc1 (stereo not drawn) [Compound 15, (Z)-6-(2-Oxo-4-(9-phenylnonyl)oxetan-3-ylidene)hexanamide]",melting point,,93 to 94 °C
"NC(=O)CCCCC=C1C(=O)OC1CCc1ccccc1 (mixture of isomers) [KC02, (E/Z)-6-(2-Oxo-4-(2-phenethyl)oxetan-3-ylidene)hexanamide]",inhibition at 1 µM,ABHD16A [2],< 30%
same,"cellular or secreted lyso-PS, other lipids, secreted IL-6 and TNF-α",ABHD16A−/− macrophages,No changes
"CCCCCCCCCCCCC[C@@H]1OC(=O)[C@H]1Cc1ccccc1 (relative stereo) [Compound 8b, (trans)-3-benzyl-4-tridecyloxetan-2-one]",inhibition at 25 µM,FASN,70 to 90%
same,inhibition at 25 µM,ABHD16A [3],> 90%
same,inhibition at 25 µM,PNPLA4,> 90%
same,inhibition at 25 µM,ABHD12,> 90%
same,inhibition at 25 µM,FAAH,> 90%
same,inhibition at 25 µM,CES2,> 90%
same,inhibition at 25 µM,ABHD2,> 90%
same,inhibition at 25 µM,ABHD3,70 to 90%
same,reactivity / inhibition of serine hydrolase activities,[4],broadest reactivity
